Experimental data as given in article PMC5703498, “Plant-type phytoene desaturase: Functional evaluation of structural implications” (PLoS ONE, 2017).

Columns and labels:
[1] = molecular target: T1, Phytoene desaturase (OsPDS-His6) (Oryza sativa, UniProt A2XDA1, R300S); assay: liposome-based desaturase assay with purified mutant, DPQ x NFZ matrix, competitive inhibition fit; assay type: biochemical
T1 construct: gene PDS1

[2] = molecular target: T2, Phytoene desaturase (OsPDS-His6) (Oryza sativa, UniProt A2XDA1); assay: liposome-based desaturase assay with purified enzyme, competitive inhibition fit against DPQ, HPLC; assay type: biochemical
T2 construct: gene PDS1
T2 sequence (A2XDA1 88-578): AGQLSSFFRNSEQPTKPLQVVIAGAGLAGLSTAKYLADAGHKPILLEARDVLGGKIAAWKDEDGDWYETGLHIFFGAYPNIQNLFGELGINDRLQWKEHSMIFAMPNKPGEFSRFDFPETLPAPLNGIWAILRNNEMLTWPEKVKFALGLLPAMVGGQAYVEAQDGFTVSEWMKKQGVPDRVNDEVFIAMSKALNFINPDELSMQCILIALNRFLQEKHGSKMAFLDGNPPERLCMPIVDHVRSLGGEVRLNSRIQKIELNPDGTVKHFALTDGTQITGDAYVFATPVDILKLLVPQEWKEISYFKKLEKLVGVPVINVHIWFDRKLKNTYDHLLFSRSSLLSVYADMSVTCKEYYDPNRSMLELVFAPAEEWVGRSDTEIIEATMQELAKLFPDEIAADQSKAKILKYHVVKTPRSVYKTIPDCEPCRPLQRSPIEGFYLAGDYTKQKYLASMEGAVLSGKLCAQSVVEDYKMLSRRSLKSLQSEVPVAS

T1 sequence (A2XDA1 88-578 R300S): as the sequence (A2XDA1 88-578) above, with R213S counted along it

In the case of CNc1cnn(-c2cccc(C(F)(F)F)c2)c(=O)c1Cl [NFZ, norflurazon], the Ki [1] is reported as 1110 ± 360 µM and the Ki [2] is reported as 230 ± 30 µM.
